Assay results as given in the supplement of paper PMC11451515.

Test system: NOMO1
Assay: cell viability relative to DMSO control; higher = less cytotoxic
Conditions: 48 h
Method in brief: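 Three leukemia lines were tested: NOMO1 and SEM at 500 cells/well and P12-Ichikawa at 1000 cells/well. Each was adapted for at least four passages in each medium and seeded in 5 μl in 1536-well plates, and library compounds in DMSO were pin-dosed from 47 μM to 0.79 nM in 11 threefold steps. After 48 h at 37°C, CellTiter-Glo One luminescence was read. Viability is a percentage relative to DMSO wells on each plate, with cell-free wells as background.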

[1] = HPLM + 10% dialyzed FBS, 0.000781 µM
[2] = HPLM + 10% dialyzed FBS, 0.00234 µM
[3] = HPLM + 10% dialyzed FBS, 0.00702 µM
[4] = HPLM + 10% dialyzed FBS, 0.0211 µM
[5] = HPLM + 10% dialyzed FBS, 0.0632 µM
[6] = HPLM + 10% dialyzed FBS, 0.19 µM
[7] = HPLM + 10% dialyzed FBS, 0.569 µM
[8] = HPLM + 10% dialyzed FBS, 1.71 µM
[9] = HPLM + 10% dialyzed FBS, 5.12 µM
[10] = HPLM + 10% dialyzed FBS, 15.4 µM
[11] = HPLM + 10% dialyzed FBS, 46.1 µM
[12] = RPMI 5 mM glucose + 10% FBS, 0.000781 µM
[13] = RPMI 5 mM glucose + 10% FBS, 0.00234 µM
[14] = RPMI 5 mM glucose + 10% FBS, 0.00702 µM
[15] = RPMI 5 mM glucose + 10% FBS, 0.0211 µM
[16] = RPMI 5 mM glucose + 10% FBS, 0.0632 µM
[17] = RPMI 5 mM glucose + 10% FBS, 0.19 µM
[18] = RPMI 5 mM glucose + 10% FBS, 0.569 µM
[19] = RPMI 5 mM glucose + 10% FBS, 1.71 µM
[20] = RPMI 5 mM glucose + 10% FBS, 5.12 µM
[21] = RPMI 5 mM glucose + 10% FBS, 15.4 µM
[22] = RPMI 5 mM glucose + 10% FBS, 46.1 µM
[23] = RPMI 5 mM glucose + 10% dialyzed FBS, 0.000781 µM
[24] = RPMI 5 mM glucose + 10% dialyzed FBS, 0.00234 µM
[25] = RPMI 5 mM glucose + 10% dialyzed FBS, 0.00702 µM
[26] = RPMI 5 mM glucose + 10% dialyzed FBS, 0.0211 µM
[27] = RPMI 5 mM glucose + 10% dialyzed FBS, 0.0632 µM
[28] = RPMI 5 mM glucose + 10% dialyzed FBS, 0.19 µM
[29] = RPMI 5 mM glucose + 10% dialyzed FBS, 0.569 µM
[30] = RPMI 5 mM glucose + 10% dialyzed FBS, 1.71 µM
[31] = RPMI 5 mM glucose + 10% dialyzed FBS, 5.12 µM
[32] = RPMI 5 mM glucose + 10% dialyzed FBS, 15.4 µM
[33] = RPMI 5 mM glucose + 10% dialyzed FBS, 46.1 µM

Compound	cell viability [1] [%]	cell viability [2] [%]	cell viability [3] [%]	cell viability [4] [%]	cell viability [5] [%]	cell viability [6] [%]	cell viability [7] [%]	cell viability [8] [%]	cell viability [9] [%]	cell viability [10] [%]	cell viability [11] [%]	cell viability [12] [%]	cell viability [13] [%]	cell viability [14] [%]	cell viability [15] [%]	cell viability [16] [%]	cell viability [17] [%]	cell viability [18] [%]	cell viability [19] [%]	cell viability [20] [%]	cell viability [21] [%]	cell viability [22] [%]	cell viability [23] [%]	cell viability [24] [%]	cell viability [25] [%]	cell viability [26] [%]	cell viability [27] [%]	cell viability [28] [%]	cell viability [29] [%]	cell viability [30] [%]	cell viability [31] [%]	cell viability [32] [%]	cell viability [33] [%]
C[C@@H]1O[C@@H](O[C@H]2C[C@@H](O)[C@]3(CO)[C@H]4[C@H](O)C[C@]5(C)[C@@H](C6=CC(=O)OC6)CC[C@]5(O)[C@@H]4CC[C@]3(O)C2)[C@H](O)[C@H](O)[C@H]1O	94.8	104	99	81.8	32.9	14.5	9.66	8.1	8.19	8.12	6.11	93.1	95.2	109	110	95.3	39.6	13.6	8.12	8.09	7.5	5.41	97.8	109	103	117	73.2	30	11.3	6.76	6.52	6.15	5.29
O=C(CC12CC3CC(CC(C3)C1)C2)Nc1cccc2nc(NCCNCCO)ccc12	79.1	95.5	89.4	106	98	90.7	101	89.8	103	90.7	36.6	81.2	89.8	83.9	87.8	82.4	90.5	81	87.4	86.4	96.4	54.1	73.5	90.7	83.2	97.2	86.7	80.5	82.4	82.3	77.4	95.3	57.7
COc1cc([C@@H]2c3cc4c(cc3[C@H](O)[C@H]3COC(=O)[C@@H]23)OCO4)cc(OC)c1OC	89.1	102	93.4	105	91.6	76.8	32.5	26.3	33.8	23.9	25.2	84.2	87.9	86.5	99.2	92.7	85.7	39.9	12.5	19.3	16.6	16	92	81.5	92.9	90	93.6	91.3	47.7	20	19.4	20.2	17.5
